From patent US20170049739A1, “PROSTACYCLIN COMPOUNDS, COMPOSITIONS AND METHODS OF USE THEREOF” (INSMED INCORPORATED, priority 2013, published 2017)
Entries after “also recorded” stand apart in the source; their conditions may differ.

Legend:
[1] = Particle size characterization of treprostinil compositions (QELS); format: physicochemical; conditions: particles of compositions comprising the alkyl ester (FIG. 2)
Method: All particle size measurements were performed using a Wyatt Technology Mobius™ Zeta Potential/ Particle Sizing Instrument in Quasi-elastic light scattering (QELS) mode. Composition aiiquots were diluted 10-fold in pre-filtered (0.02 μm pore filter) ultrapure of deionized H2O. Light scattering data was collected and converted into particle size and size distribution using Dynamics® v. […] Reported average particle size diameter is based on the cumulants model, which mathematically fits particle diffusion constants (determined by the raw scattering intensities of particles in a suspension) to obtain the particle size mean and a distribution of particle sizes around the mean diameter.
Particle uniformity was determined using the software-calculated polydispersity (% PD). Polydispersity is defined as the standard deviation of the particle size distribution from the mean particle size value. % PD normalizes the polydispersity to the mean diameter by dividing by the mean size and multiplylng by 100. These parameters indicate whether a particle suspension has one or more size populations of particles (monomodal versus multimodal). […]
Dynamics® polydispersity parameter represents a monodisperse population of particles if % PD≦15. A calculated % PD≧57% represents a polydisperse population of particles.

physchem = conditions: organic solvent or mixture, thermodynamic from solid
Method: Selected treprostinil derivatives were evaluated for the use in a metered dose inhaler (MDI).
5 mg of each treprostinil compound was added in a glass bottle. Specific amount of ethanol was added by weight. An MDI valve was crimped to each bottle, and HFA propellant added through the valve to the total volume of 5 mL. Compounds were allowed to dissolve for 24 hours at room temperature. The formulations were assessed visually for solubility. The goal was to estimate the minimum ethanol concentration required to solubilize each compound in propellant.
Soluble samples presented as clear and colorless solutions. […] Non-soluble samples had white precipitate or crystals formed. Ethanol was added as a solubility aid.

EP2 prostanoid receptor = target: T1, EP2 prostanoid receptor (Homo sapiens, UniProt P43116); test: GloSensor cAMP assay in CHO-K1 cells co-transfected with the EP2 receptor; format: cell-based; conditions: for change of potency with incubation time / release profile: dose response curves at 0.5 to 8 hr incubation
T1 construct: host or cells: CHO-K1 cells, transiently co-transfected with pGloSensor-22F cAMP plasmid and pGEM-3Zf(+)
T1 sequence (P43116 whole entry): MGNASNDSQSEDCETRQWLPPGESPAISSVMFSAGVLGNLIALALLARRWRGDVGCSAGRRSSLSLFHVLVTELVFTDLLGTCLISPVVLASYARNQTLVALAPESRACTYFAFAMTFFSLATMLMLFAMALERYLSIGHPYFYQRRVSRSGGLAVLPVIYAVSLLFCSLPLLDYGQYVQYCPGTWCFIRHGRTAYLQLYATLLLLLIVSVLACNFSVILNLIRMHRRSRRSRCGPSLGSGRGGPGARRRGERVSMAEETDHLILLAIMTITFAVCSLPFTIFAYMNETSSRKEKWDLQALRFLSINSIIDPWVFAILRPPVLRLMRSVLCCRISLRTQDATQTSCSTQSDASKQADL
Source text: cAMP is a second messenger involved in signal transduction of G-protein coupled receptors (GPCRs) acting through Ga-s and Ga-i proteins. Because the treprostinil receptor is a GPCR, the assay provides an indication of whether the respective prostacyclin compound (or metabolite thereof) binds its receptor and activates the GPCR cell signaling cascade. The GloSensorTM assay harnesses a genetically modified form of firefly luciferase into which a cAMP-binding protein moiety has been inserted. Upon binding of cAMP, a conformational change is induced leading to increased light output. The EP2 prostanoid receptor was co-transfected with the GloSensorTM plasmid (Promega) into CHG-K1 cells as follows. CHO-K1 cells were harvested when the monoloayer was at 50-90% confluence. First, cells were washed with 5 mL PBS. […] The media was aspirated, and the cell pellet was resuspended in 10 mL of growth media. Cell number was determined using a hemacytometer. Each well of a culture treated 96 […] bottom plate (Costar, Cat #: 3917) was seeded with 1×10^4 cells per 100 μL antibiotic-free growth media. […] For small scale transfections of up to 20 wells, the pGLoSensor-22F cAMP plasmid (Promega, Cat #: E2301) (2 μg): (EP2) (10 ng) (Origene, Cat #: SC126558) : pGEM-3Zf(+) (10 ng) (Promega, Cat #: P2271) ratio was diluted to a final concentration of 12.6 ng/μL (total plasmid) in Opti-MEM I reduced-serum medium (Life Technologies, Cat #: 1985062). Next, 6 μL of FuGENE HD transfection reagent (Promega, Cat #: E2311) was added to 160 μL of diluted plasmid and mixed carefully by gentle pipetting. The complex was incubated at room temperature for 0 to 10 minutes, and then 8 μL of the complex was added per well of a 96 well white assay plate (Costar, Cat #: 3917) and gently mixed without disturbing the cell monolayer. […] Following incubation, cells were treated and analyzed. For larger scale transfections, the aforementioned steps were scaled up accordingly, and cells were frozen following the last incubation. In order to prepare frozen transfected CHO-K1 cells, the media was aspirated from culture flasks and cells were rinsed with 5 mL PBS. […] Cell number was determined using a hemacytometer. The media was aspirated, and the cell pellet was resuspended in freezing media (Millipore, cat #: S-002-5F) at 2.5×10^6 cells/vial. Transfected cells were incubated overnight at -80° C. before transfer to liquid nitrogen for long term storage. […] In preparation for cAMP measurement, the cells were equilibrated with the GloSensor cAMP reagent prior to treatment. For equilibration, the medium was carefully removed from the individual well. Next, 100 μL of equilibration medium (6% v/v of Glosensor Reagent stock solution (Promega, Cat #: E291), 10% FBS (Hyclone, Cat #: SH30071.03) and 88% CO2 independent medium (Life Technologies, Cat #: 18045088)) was added per well of the 96-well plate, and added to the side of each well. The plate was then incubated for 2 hours at room temperature. A first pre-read measurement was taken using a microplate reader (MicroLumat Plus). Plates were incubated for an additional 10 minutes at room temperature, followed by a second pre-read measurement. […] Following treatment, each plate was read every 5 minutes for the duration of the assay using a microplate reader (MicroLumat Plus). In order to determine the fold change in cAMP relative to the control, the transfection efficiency was first determined by dividing the second pre-read measurement by the average of the corresponding pre-read measurements. Next, the normalized relative light units (RLUs) of the samples were determined by dividing the plate read measurement by the transfection efficiency. The fold change in cAMP relative to the control was then determined by dividing the normalized RLU of the samples by the normalized RLU of the control. […] Results from the three highest concentrations are provided at FIG. 3A (10 μM), FIG. 3B (1 μM) and FIG. 3C (0.1 μM). […]

[2] = Treprostinil alkyl ester conversion to treprostinil in rat lung tissue homogenate; format: in vitro ADME; conditions: 37° C., 200 nM, 10 mg/mL of protein, 4 hours
Method: Treprostinil alkyl ester conversion to treprostinil was also measured in the presence of rat, dog and monkey lung tissue homogenate at 37° C. Mere, data were calculated based on fit of exponential increase to the maximum (experiments performed in duplicate). The results of this study are provided below in Table 2A and FIG. 37. […] Both FIG. 37 experiments (left and right graphs) were performed in duplicate and the lines represent nonlinear exponential regression assuming 1 phase decay.

cough reflex = test: Cough reflex in guinea pigs exposed to aerosols; format: in vivo, guinea pig
Method: has the following components: Aerosols were generated with an Ultra-Neb Pro nebulizer (nebulizer output 0.36 mL/min.) that was mixed with inspired air delivered at a rate of 2 L/min. […] Coughs were detected by visual observations, plethysmograph recordings and cough sounds.

[3] = dog, in vivo
Method: Twelve beagle dogs of either sex were randomly assigned to different inhaled doses of treprostinil in PBS or the compound of Formula (A) wherein R2=
Formulations were nebulized with an Aeroneb nebulizer (MMAD: 2.5-4 μm) delivered into a 500 ml expansion chamber. Formulations were nebulized for 2 min at ventilator settings of 90 ml/breath, 15 breaths/min (delivered volume=2.7 L) and collected on a filter. Drug amount (μg) on the filter was measured by HPLC to calculate the concentration of drug delivered through the ventilator circuit (μg/L).
Dosimetry was performed in propofol-anesthetized dogs in which nebulized drugs were introduced into a mixing chamber interposed on the inspiratory limb of a canine respirator. Technical trials were performed before each experiment to measure the concentration of drug (μg/L) delivered for each breath. The inhaled drug dose (μg/kg) was calculated using the formula: Inhaled Drug Dose (μg/kg)=Drug Cone. (μg/L)×Minute Ventilation (L/min.)×Time (min.)/Body Weight (kg).
Dosimetry was performed in propofol-anesthetized, artificially ventilated dogs in which nebulized drugs were introduced into a mixing chamber interposed on the inspiratory limb of the respirator. Technical trials were performed before each experiment measuring the concentration of drug (μg/L) per breath, minute ventilation and time required to achieve a targeted pulmonary dose. […] Clinical signs (cough, rapid shallow breathing, emesis and pale gums) were also monitored.

[4] = Treprostinil pharmacokinetics in anaesthetised, ventilated rats after nebulized dosing; format: in vivo, rat; conditions: nebulized solution
Method: Male Sprague Dawley rats wrere anaesthetised and prepared with endotracheal tube for ventilation. The right femoral vein was cannulated to facilitate blood collections. Terminal lung samples were taken for analysis only 6 hours after dosing. […] Systemic blood pressure (mSAP), heart rate (HR), and arterial oxygen saturation (SaO2). Physiologic parameters were measured during normoxia (fraction of inspired oxygen [FrO2]=0.21, SaO2 ≈90%) and for 2 to 3 hours during hypoxia (FrO2=0.10, SaO2≈50%).

[5] = rat, in vivo
Method: Nebulized treprostinil (TRE) solution and treprostinil alkyl ester formulations were administered (at 15 nmol/kg, or […] TRE equivalent) to anaesthetised-ventilated rats (6-hour studies) or to conscious rats by nose-only inhalation (24-hour studies). Blood and lung samples were collected at specified time points. TRE and treprostinil alkyl ester concentrations in blood plasma and lung tissue were measured by HPLC/MS/MS analysis.
Male Sprague Dawley rats were placed in restraining tubes and exposed to nebulised drugs via the Jaeger-NYU Nose-Only Directed-Flow Inhalation Exposure System (CH Technologies, Westwood, N.J.) (FIG. 31), Test articles (6 mL at specific concentration) were nebulised using the Aeroneb nebuliser to deliver a predetermined estimated pulmonary dose. Blood and lung tissue samples were taken at selected times after nebulization of the drags over a 24-hour period.

[6] = Tolerability and pharmacokinetics in rats after 14 consecutive days of inhaled C16-TR (T748); format: in vivo, rat; conditions: T748, 0.6-18 μg/kg inhaled
Method: Body weights were recorded daily and organ weights (lungs, heart, liver) were measured 24 hr, after the last drug dose.

[7] = nebulized concentration of 30 μg/mL

## CCCCCCCCCCCCCCOC(=O)COc1cccc2c1C[C@H]1C[C@@H](O)[C@H](CC[C@@H](O)CCCCC)[C@H]1C2 [C14-TR, tetradecyl-treprostinil]
[1]
  polydispersity (% PD): around 15 % PD
physchem
  solubility at 24 h: < 1000 µg/mL
physchem; Solubility in HFA-134a with added ethanol
  solubility at 24 h: < 1000 µg/mL
EP2 prostanoid receptor
  change of potency with incubation time / release profile: increases with incubation time
[2]
  Rate of treprostinil alkyl ester conversion: 0.4 nmOL/h * g of protein

## CCCCC[C@H](O)CC[C@@H]1[C@H]2Cc3cccc(OCC(=O)O)c3C[C@H]2C[C@H]1O [Treprostinil, (1R,2R,3aS,9aS)-[[2,3,3a,4,9,9a-hexahydro-2-hydroxy-1-[(3S)-3-hydroxyoctyl]-1H-benz[f]inden-5-yl]oxy]acetic acid]
Cough reflex; guinea pigs, aerosol 10 min.
  exposure concentration consistently evoking cough: ≥ 30 µg/mL
Cough reflex; [7]
  cough bouts: 1-4
  guinea pigs with cough: 7 of 7
  total number of coughs: 36+9 coughs
[3]; both, beagle
  time by which plasma treprostinil was below the level of quantification: ≤ 4 h
  treprostinil plasma Cmax relative to similar inhaled doses of T623: 15-20 fold
[3]
  period over which plasma levels of treprostinil were sustained: disappeared within a few hours
[4]
  time by which measurable levels of TRE were not seen in the lungs: < 6 h
  time to which measurable levels of TRE were seen in the blood plasma: ≤ 4 h
EP2 prostanoid receptor; 10 μM, FIG. 3A
  time for which cAMP level was sustained: not exhibited
EP2 prostanoid receptor; compositions shown in FIG. 3, 8 hours time course
  Max cAMP level (Fold): ~16 Fold
EP2 prostanoid receptor; compositions shown in FIG. 4, 5 μM, 8 hours time course
  Max cAMP level (Fold): ~14 Fold
EP2 prostanoid receptor
  change of potency with incubation time / release profile: potency decreases with increasing incubation time
EP2 prostanoid receptor; effect of nebulization study (FIG. 6), head prints (5 μM)
  Max cAMP level (Fold): ~15 Fold

## hexadecyl-treprostinil [C16-TR]
[3]
  adverse clinical signs in the dose-response study: adverse clinical signs were seen in only 1 dog
[5]
  release kinetics of treprostinil over 24 hours: independent of dose
EP2 prostanoid receptor
  change of potency with incubation time / release profile: increases with incubation time
EP2 prostanoid receptor; unformulated compounds, 10 μM and 5 μM, FIG. 21
  ranking of activity of the treprostinil compounds: C12-TR>C14-TR>5-nonanyl-TR>C16-TR
[6]
  tolerability, body weights and organ weights: no tolerability issues or significant changes (relative to PBS) in body weights and organ weights; also recorded: well tolerated
